Test results taken from patent US20210267996A1, “Compounds for inhibition of inflammation” (Children`s Medical Center Corporation, priority 2018, published 2021).
Entries after “also recorded” stand apart in the source; their conditions may differ.

Tests used:
[1] = system: caspase-1, GSDMD, and pro-IL-1β; experiment: Caspase-1, GSDMD, pro-IL-1β cleavage and IL-1β secretion by immunoblot, THP-1; assay type: cell-based, human; conditions: 30 μM; for caspase-1, GSDMD and pro-IL-1β cleavage: 30 min after nigericin
Method: Immunoblot analysis: cell extracts were prepared using RIPA buffer (50 mM Tris-HCl pH 7.4, 150 mM NaCl, 1 mM EDTA, 1% Triton X-100, 0.1% SDS, 0.5% deoxycholate) supplemented with a complete protease inhibitor cocktail (Roche) and a PhosSTOP phosphatase inhibitor cocktail (Roche). Samples were subjected to SDS-PAGE and the resolved proteins were then transferred to a PVDF membrane (Millipore). Immunoblots were probed with indicated antibodies and visualized using a SuperSignal West Pico chemiluminescence ECL kit (Pierce).
To assess which steps in NLRP3-mediated inflammation were inhibited post ASC speck formation, LPS-primed THP-1 cells were treated with vehicle or 30 μM z-VAD-fmk, disulfiram or Bay 11-7082 1 hr before adding nigericin, and cleavage and activation of caspase-1, GSDMD, and pro-IL-1β were analysed by immunoblot of whole cell lysates 30 min later (FIG. 50). Secretion of processed IL-1β was also assessed by immunoblot of culture supernatants. […] Because immunoblots are not quantitative, caspase-1 activity 30 min after adding nigericin was also assessed using a fluorescent substrate in intact cells. […] Next, the effect of z-VAD-fmk, disulfiram and Bay 11-7082 on LPS+nigericin-induced GSDMD pore formation was assessed by immunofluorescence microscopy using a monoclonal antibody that was generated that recognizes both uncleaved GSDMD and its pore form (FIGS. 53, 54, and 64-66). In the absence of any inhibitor, the GSDMD antibody stained both the cytosol and the plasma membrane of LPS plus nigericin treated cells, which formed characteristic pyroptotic bubbles (See Reference 10). […] Thus, disulfiram and Bay 11-7082 inhibit multiple steps leading to canonical inflammasome-induced pyroptosis and inflammatory cytokine release, including priming, inflammasome assembly, inflammatory caspase activation, pro-inflammatory cytokine processing and GSDMD pore formation.
Cell death was determined by CytoTox96 assay. […] Cell death was determined by CytoTox96 assay. […] Shown are immunoblots of whole cell lysates harvested 0.5 hr later. […] Representative images of ASC specks (arrowheads) and mean±s.d. percent of cells with ASC specks analyzed 20 min later (FIG. 47). Whole cell lysates (WCL) and culture supernatants (Sup) were harvested 30 min after adding nigericin and immunoblotted with the indicated antibodies (FIG. 50). Caspase-1 activity was assayed 30 min after adding nigericin using a cell-permeable fluorescence dye FAM-YVAD-FMK (FIG. 52). […] Representative images of ASC specks (arrowheads) and mean±s.d. percent of cells with ASC specks analyzed 20 min later (FIGS. 48 and 49). Whole cell lysates (WCL) and culture supernatants (Sup), harvested 30 min after adding nigericin, were analyzed by immunoblot (FIG. 51). […] The Figures show representative confocal microscopy images and quantification of proportion of cells with GSDMD membrane staining and pyroptotic bubbles. Arrows indicate GSDMD staining of pyroptotic bubbles. […] FIGS. 57 and 58, dose response curve of the effect of Bay 11-7082 on caspase-1 (FIG. 57) and caspase-11 (FIG. 58) activity against a fluorescent peptide substrate. […] (FIG. 60). FIGS. 61 and 62 show dose response curve of the effect of Bay 11-7082 on liposome leakage induced by 0.3 μM human GSDMD-3C (FIG. 61) or mouse GSDMA3-3C (FIG. 62) plus 0.15 μM 3C protease. […] 2-fold dilutions of Bay 11-7082 from 5-40 μM were used. Graphs show the mean±s.d; data are representative of three independent experiments. *P<0.05, **P<0.01.
Canonical inflammasome assembly activates caspase-1, which cleaves pro-IL-1β and GSDMD, and the latter is needed to release processed IL-1β and to induce pyroptosis. […]

[2] = system: mouse iBMDMs; experiment: AIM2 inflammasome cell death, iBMDMs transfected with poly(dA:dT); assay type: cell-based; conditions: poly(dA:dT) transfection
[3] = system: GSDMD pore formation; experiment: GSDMD membrane staining and pyroptotic bubbles, immunofluorescence; assay type: cell-based, human; conditions: 30 μM, 30 min after nigericin
Method: Immunostaining and confocal microscopy: cells grown on coverslips were fixed for 15 min with 4% paraformaldehyde in PBS, permeabilized for 5 min in 0.1% Triton X-100 in PBS and blocked using 5% BSA for 1 hr. Then, cells were stained with the indicated primary antibodies followed by incubation with fluorescent-conjugated secondary antibodies (Jackson ImmunoResearch). Nuclei were counterstained with DAPI (4,6-diamidino-2-phenylindole) (Sigma-Aldrich). Slides were mounted using Aqua-Poly/Mount (Dako). Images were captured using a laser scanning confocal microscope (Olympus Fluoview FV1000 Confocal System) with a 63× water immersion objective and Olympus Fluoview software (Olympus). All confocal images are representative of three independent experiments.
To assess which steps in NLRP3-mediated inflammation were inhibited post ASC speck formation, LPS-primed THP-1 cells were treated with vehicle or 30 μM z-VAD-fmk, disulfiram or Bay 11-7082 1 hr before adding nigericin, and cleavage and activation of caspase-1, GSDMD, and pro-IL-1β were analysed by immunoblot of whole cell lysates 30 min later (FIG. 50). Secretion of processed IL-1β was also assessed by immunoblot of culture supernatants. […] Because immunoblots are not quantitative, caspase-1 activity 30 min after adding nigericin was also assessed using a fluorescent substrate in intact cells. […] Next, the effect of z-VAD-fmk, disulfiram and Bay 11-7082 on LPS+nigericin-induced GSDMD pore formation was assessed by immunofluorescence microscopy using a monoclonal antibody that was generated that recognizes both uncleaved GSDMD and its pore form (FIGS. 53, 54, and 64-66). […]
Cell death was determined by CytoTox96 assay. […] Cell death was determined by CytoTox96 assay. […] Representative images of ASC specks (arrowheads) and mean±s.d. percent of cells with ASC specks analyzed 20 min later (FIG. 47). […] Caspase-1 activity was assayed 30 min after adding nigericin using a cell-permeable fluorescence dye FAM-YVAD-FMK (FIG. 52). […]

[4] = system: mouse iBMDMs; experiment: Non-canonical inflammasome pyroptosis, iBMDMs with LPS electroporation; assay type: cell-based
Method: Cell lines and treatments: THP-1 cells and HEK293T cells (obtained from ATCC) were grown in RPMI with 10% heat-inactivated fetal bovine serum, supplemented with 100 U/ml penicillin G, 100 μg/ml streptomycin sulfate, 6 mM HEPES, 1.6 mM L-glutamine, and 50 μM 2ME. C57BL/6 mouse iBMDM cells were kindly provided by J. Kagan (Boston Children's Hospital) and cultured in DMEM with the same supplements. Cells were verified to be free of mycoplasma contamination. Transient transfection of HEK293T cells was performed using Lipofectamine 2000 (Invitrogen) according to the manufacturer's instructions. iBMDM cells were transfected by nucleofection using the Amaxa Nucleofector kit (VPA-1009). […] To examine IκBα. phosphorylation and degradation as well as IL-1β induction, PMA-differentiated THP-1 cells were stimulated with LPS (1 μg/ml) for 0.5, 1 and 4 hrs, respectively. For noncanoical inflammasome activation, 1 million iBMDM cells were electroporated with 1 μg ultra LPS.
Cytotoxicity and cell viability assays: cell death and cell viability were determined by the lactate dehydrogenase release assay using the CytoTox 96 Non-Radioactive Cytotoxicity Assay kit (Promega) and by measuring ATP levels using the CellTiter-Glo Luminescent Cell Viability Assay (Promega), respectively, according to the manufacturer's instructions. Luminescence and absorbance were measured on a BioTek Synergy 2 plate reader.
In FIGS. 4, 6, and 8, PMA-differentiated LPS-primed human THP-1 were pre-treated with indicated concentrations of each compound for 1 h before adding nigericin or medium. The number of surviving cells was determined by CellTiter-Glo assay (FIGS. 4 and 6) and IL-1β in culture supernatants was assessed by ELISA (FIG. 8) 2 hrs later. In FIGS. 5, 7, and 9, mouse iBMDMs were pre-treated with each test compound for 1 hr before electroporation with PBS or LPS. The number of surviving cells was determined by CellTiter-Glo assay (FIGS. 5 and 7) and IL-1β in culture supernatants was assessed by ELISA (FIG. 9) 2.5 hrs later. In FIGS. 8 and 9, 40 μM concentration of test compounds were added.

| SMILES | caspase-1, GSDMD and pro-IL-1β cleavage ([1]; listed as disulfiram) | processing of caspase-1, GSDMD and pro-IL-1β ([1]; 60 min after nigericin) | processed IL-1β in culture supernatants ([1]; listed as disulfiram) | cell death triggered by the AIM2 inflammasome [2] | GSDMD membrane staining and pyroptotic bubbles [3] | processed IL-1β in culture supernatants [1] | caspase-1, GSDMD and pro-IL-1β cleavage [1] | inhibition of non-canonical inflammasome pyroptosis [4] |
| --- | --- | --- | --- | --- | --- | --- | --- | --- |
| CCN(CC)C(=S)SSC(=S)N(CC)CC [C-23, Tetraethylthiuram disulfide] | dramatically reduced; also recorded: processing was reduced | caught up with what was detected in the absence of inhibitors | only detected in the culture supernatants in the absence of any inhibitor; also recorded: completely inhibited cytokine release | impaired cell death in a dose-dependent manner | completely blocked |  |  |  |
| Cc1ccc(S(=O)(=O)/C=C/C#N)cc1 [Bay 11-7082] |  |  |  |  | completely blocked | only detected in the culture supernatants in the absence of any inhibitor | dramatically reduced | less active than disulfiram |
